Experimental data taken from ChEMBL document CHEMBL3046644, “Biological activity of tropolone” (Biol Pharm Bull, 2003).
Converted amounts (≈) assume the structure as drawn.

Assays:
Carboxypeptidase A1 = biological target: T1, Carboxypeptidase A1 (Bos taurus, UniProt P00730); assay: Inhibition of Bos taurus (bovine) pancrease carboxypeptidase A after 15 min
T1 sequence (P00730 whole entry): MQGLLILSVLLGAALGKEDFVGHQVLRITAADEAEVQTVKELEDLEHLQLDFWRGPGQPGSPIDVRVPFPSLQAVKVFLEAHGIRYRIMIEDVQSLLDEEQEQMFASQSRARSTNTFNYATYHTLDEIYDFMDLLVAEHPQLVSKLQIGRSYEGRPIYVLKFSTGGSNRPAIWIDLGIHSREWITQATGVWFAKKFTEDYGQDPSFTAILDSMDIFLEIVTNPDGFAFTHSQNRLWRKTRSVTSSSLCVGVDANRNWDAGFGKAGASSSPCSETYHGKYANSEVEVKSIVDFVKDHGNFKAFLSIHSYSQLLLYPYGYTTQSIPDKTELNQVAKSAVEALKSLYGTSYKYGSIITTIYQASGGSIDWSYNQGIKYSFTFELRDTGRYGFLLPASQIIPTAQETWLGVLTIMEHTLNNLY

Collagenase ColG = biological target: T2, Collagenase ColG (Clostridium histolyticum, UniProt Q9X721); assay: Inhibition of Clostridium histolyticum collagenase after 15 min; parameters: species or system Hathewaya histolytica
T2 sequence (Q9X721 whole entry): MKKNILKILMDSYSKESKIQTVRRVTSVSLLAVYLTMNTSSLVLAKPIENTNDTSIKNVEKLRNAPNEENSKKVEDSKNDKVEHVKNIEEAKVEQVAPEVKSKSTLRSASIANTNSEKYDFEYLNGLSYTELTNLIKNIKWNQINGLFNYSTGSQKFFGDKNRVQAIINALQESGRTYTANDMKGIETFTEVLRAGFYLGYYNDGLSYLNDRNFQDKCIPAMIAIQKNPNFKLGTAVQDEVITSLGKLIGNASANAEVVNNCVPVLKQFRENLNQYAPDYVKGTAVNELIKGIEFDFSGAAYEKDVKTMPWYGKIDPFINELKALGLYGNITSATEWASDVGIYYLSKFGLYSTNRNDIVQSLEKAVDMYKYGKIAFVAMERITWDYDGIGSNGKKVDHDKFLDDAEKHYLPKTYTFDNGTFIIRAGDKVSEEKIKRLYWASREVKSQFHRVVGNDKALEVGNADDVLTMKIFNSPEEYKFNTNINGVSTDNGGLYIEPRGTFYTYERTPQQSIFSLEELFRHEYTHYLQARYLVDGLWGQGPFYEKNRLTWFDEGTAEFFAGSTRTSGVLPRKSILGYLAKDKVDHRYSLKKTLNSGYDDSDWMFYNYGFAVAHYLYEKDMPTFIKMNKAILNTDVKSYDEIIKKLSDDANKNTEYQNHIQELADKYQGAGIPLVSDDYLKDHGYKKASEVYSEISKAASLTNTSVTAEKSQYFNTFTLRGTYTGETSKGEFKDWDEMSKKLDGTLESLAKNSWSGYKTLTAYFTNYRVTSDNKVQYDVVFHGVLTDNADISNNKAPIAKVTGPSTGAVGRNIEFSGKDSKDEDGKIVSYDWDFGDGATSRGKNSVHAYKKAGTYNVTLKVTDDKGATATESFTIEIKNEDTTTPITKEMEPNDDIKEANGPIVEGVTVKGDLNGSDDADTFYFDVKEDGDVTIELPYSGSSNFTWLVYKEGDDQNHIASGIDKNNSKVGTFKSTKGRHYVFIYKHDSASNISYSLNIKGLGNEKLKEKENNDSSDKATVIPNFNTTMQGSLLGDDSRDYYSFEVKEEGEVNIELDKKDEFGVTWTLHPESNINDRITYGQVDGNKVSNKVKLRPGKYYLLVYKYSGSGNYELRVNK

Thermolysin = biological target: T3, Thermolysin (Bacillus thermoproteolyticus, UniProt P00800); assay: Inhibition of Bacillus thermoproteolyticus thermolysin after 15 min
T3 sequence (P00800 whole entry): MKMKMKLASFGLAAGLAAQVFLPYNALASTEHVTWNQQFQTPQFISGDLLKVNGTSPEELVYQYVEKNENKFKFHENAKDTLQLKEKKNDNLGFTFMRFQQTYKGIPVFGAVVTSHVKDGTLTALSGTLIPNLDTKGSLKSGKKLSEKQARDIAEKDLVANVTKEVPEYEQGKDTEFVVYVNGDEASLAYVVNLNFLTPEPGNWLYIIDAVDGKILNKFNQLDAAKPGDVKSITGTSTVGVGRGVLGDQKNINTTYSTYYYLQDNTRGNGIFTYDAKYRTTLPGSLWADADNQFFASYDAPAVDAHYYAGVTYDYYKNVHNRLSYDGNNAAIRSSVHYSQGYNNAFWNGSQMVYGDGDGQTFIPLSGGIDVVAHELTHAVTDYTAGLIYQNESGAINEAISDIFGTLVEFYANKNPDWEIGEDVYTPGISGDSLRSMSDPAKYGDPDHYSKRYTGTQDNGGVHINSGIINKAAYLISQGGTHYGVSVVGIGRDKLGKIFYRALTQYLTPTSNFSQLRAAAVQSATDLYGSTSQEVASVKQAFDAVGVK

Dermatophagoides farinae [1] = assay: Insecticidal activity against Dermatophagoides farinae assessed as mortality after 24 hr by clip method; type: functional
Coptotermes formosanus [2] = assay: Insecticidal activity against Coptotermes formosanus assessed as mortality at 0.100 g/m'2 after 24 hr; type: functional
Dermatophagoides farinae [3] = assay: Insecticidal activity against Dermatophagoides farinae assessed as mortality at 0.10 g/m'2 after 24 hr by clip method; type: functional
Coptotermes formosanus [4] = assay: Insecticidal activity against Coptotermes formosanus assessed as mortality at 0.100 g/m'2 after 48 hr; type: functional
Dermatophagoides farinae [5] = assay: Insecticidal activity against Dermatophagoides farinae assessed as mortality at 0.05 g/m'2 after 24 hr by clip method; type: functional
Pythium aphanidermatum = assay: Antifungal activity against Pythium aphanidermatum IFO 32440 after 15 days by agar dilution method; type: functional; conditions: IFO 32440, 360 h
Coptotermes formosanus [6] = assay: Insecticidal activity against Coptotermes formosanus assessed as mortality at 0.050 g/m'2 after 48 hr; type: functional
Dermatophagoides farinae [7] = assay: Insecticidal activity against Dermatophagoides farinae assessed as mortality at 0.50 g/m'2 after 24 hr by clip method; type: functional
Coptotermes formosanus [8] = assay: Insecticidal activity against Coptotermes formosanus assessed as mortality at 0.025 g/m'2 after 48 hr; type: functional
Tyrophagus putrescentiae [9] = assay: Insecticidal activity against Tyrophagus putrescentiae assessed as mortality at 0.20 g/m'2 after 24 hr by clip method; type: functional
Thanatephorus cucumeris = assay: Antifungal activity against Thanatephorus cucumeris IFO 30445 after 15 days by agar dilution method; type: functional; conditions: IFO 30445, 360 h
Coptotermes formosanus [10] = assay: Insecticidal activity against Coptotermes formosanus assessed as mortality at 0.200 g/m'2 after 24 hr; type: functional
Tyrophagus putrescentiae [11] = assay: Insecticidal activity against Tyrophagus putrescentiae assessed as mortality at 0.50 g/m'2 after 24 hr by clip method; type: functional
Fusarium solani = assay: Antifungal activity against Fusarium solani IFO 9955 after 15 days by agar dilution method; type: functional; conditions: IFO 9955, 360 h
Coptotermes formosanus [12] = assay: Insecticidal activity against Coptotermes formosanus assessed as mortality; type: functional
Tyrophagus putrescentiae [13] = assay: Insecticidal activity against Tyrophagus putrescentiae assessed as mortality at 0.40 g/m'2 after 24 hr by clip method; type: functional
Tyrophagus putrescentiae [14] = assay: Insecticidal activity against Tyrophagus putrescentiae assessed as mortality after 24 hr by clip method; type: functional
Phomopsis obscurans = assay: Antifungal activity against Phomopsis obscurans MAFF 744018 after 15 days by agar dilution method; type: functional; conditions: Paraphomopsis obscurans, MAFF 744018, 360 h
Dermatophagoides farinae [15] = assay: Insecticidal activity against Dermatophagoides farinae assessed as mortality at 0.025 g/m'2 after 24 hr by clip method; type: functional
Tyrophagus putrescentiae [16] = assay: Insecticidal activity against Tyrophagus putrescentiae assessed as mortality at 0.30 g/m'2 after 24 hr by clip method; type: functional
Colletotrichum lagenaria = assay: Antifungal activity against Colletotrichum lagenaria after 15 days by agar dilution method; type: functional; conditions: 360 h
Coptotermes formosanus [17] = assay: Insecticidal activity against Coptotermes formosanus assessed as mortality at 0.200 g/m'2 after 48 hr; type: functional
Coptotermes formosanus [18] = assay: Insecticidal activity against Coptotermes formosanus assessed as mortality at 0.050 g/m'2 after 24 hr; type: functional
Coptotermes formosanus [19] = assay: Insecticidal activity against Coptotermes formosanus assessed as mortality at 0.025 g/m'2 after 24 hr; type: functional
Tyrophagus putrescentiae [20] = assay: Insecticidal activity against Tyrophagus putrescentiae assessed as mortality at 0.10 g/m'2 after 24 hr by clip method; type: functional
Dermatophagoides farinae [21] = assay: Insecticidal activity against Dermatophagoides farinae assessed as mortality at 0.40 g/m'2 after 24 hr by clip method; type: functional
Dermatophagoides farinae [22] = assay: Insecticidal activity against Dermatophagoides farinae assessed as mortality at 0.20 g/m'2 after 24 hr by clip method; type: functional
Botrytis cinerea = assay: Antifungal activity against Botryotinia fuckeliana IFO 30915 after 15 days by agar dilution method; type: functional; conditions: IFO 30915, 360 h
[23] = system: Colletotrichum orbiculare; assay: Antifungal activity against Colletotrichum orbiculare MAFF 306518 after 15 days by agar dilution method; type: functional; conditions: MAFF 306518, 360 h
Dermatophagoides farinae [24] = assay: Insecticidal activity against Dermatophagoides farinae assessed as mortality at 0.30 g/m'2 after 24 hr by clip method; type: functional

Work on `c1cnc2c(c1)ccc1cccnc12` [PHENANTHROLINE] yielded an IC50 (Carboxypeptidase A1) of 422 µM, an IC50 (Collagenase ColG) of 185 µM and an IC50 (Thermolysin) of 360 µM.
Work on `CC(C)c1cccc(=O)c(O)c1` [HINOKITIOL] yielded an IC50 (Carboxypeptidase A1) of 2.76 µM, an LC50 (Dermatophagoides farinae [1]) of 0.37 g/m2 and a mortality (Coptotermes formosanus [2]) of 50%. For the same compound, the mortality (Dermatophagoides farinae [3]) was 45.2%, the mortality (Coptotermes formosanus [4]) was 100% and the mortality (Dermatophagoides farinae [5]) was 18.8%. The MIC (Pythium aphanidermatum) was 12 µg/mL (≈ 73.1 µM), the mortality (Coptotermes formosanus [6]) was 50% and the mortality (Dermatophagoides farinae [7]) was 100%. The mortality (Coptotermes formosanus [8]) was 20%, the mortality (Tyrophagus putrescentiae [9]) was 33.6% and the MIC (Thanatephorus cucumeris) was 12 µg/mL (≈ 73.1 µM). It also gave a mortality (Coptotermes formosanus [10]) of 100%, a mortality (Tyrophagus putrescentiae [11]) of 91.3% and an IC50 (Collagenase ColG) of 24 µM. The MIC (Fusarium solani) was 50 µg/mL (≈ 304 µM), the LC50 (Coptotermes formosanus [12]) was 0.08 g/m2 and the IC50 (Thermolysin) was 61 µM. The mortality (Tyrophagus putrescentiae [13]) was 77.5%, the LC50 (Tyrophagus putrescentiae [14]) was 0.24 g/m2 and the MIC (Phomopsis obscurans) was 12 µg/mL (≈ 73.1 µM). It also gave a mortality (Dermatophagoides farinae [15]) of 7.8%, a mortality (Tyrophagus putrescentiae [16]) of 55.5% and an MIC (Colletotrichum lagenaria) of 25 µg/mL (≈ 152 µM). It also gave a mortality (Coptotermes formosanus [17]) of 100%, a mortality (Coptotermes formosanus [18]) of 40% and a mortality (Coptotermes formosanus [19]) of 10%. For the same compound, the mortality (Tyrophagus putrescentiae [20]) was 11.9%, the mortality (Dermatophagoides farinae [21]) was 100% and the mortality (Dermatophagoides farinae [22]) was 96.3%. For the same compound, the MIC (Botrytis cinerea) was 50 µg/mL (≈ 304 µM), the MIC [23] was 25 µg/mL (≈ 152 µM) and the mortality (Dermatophagoides farinae [24]) was 100%.
